T1: MxaF/MxaJ complex (Methylorubrum extorquens, UniProt P16027)
T1 sequence (P16027 28-626): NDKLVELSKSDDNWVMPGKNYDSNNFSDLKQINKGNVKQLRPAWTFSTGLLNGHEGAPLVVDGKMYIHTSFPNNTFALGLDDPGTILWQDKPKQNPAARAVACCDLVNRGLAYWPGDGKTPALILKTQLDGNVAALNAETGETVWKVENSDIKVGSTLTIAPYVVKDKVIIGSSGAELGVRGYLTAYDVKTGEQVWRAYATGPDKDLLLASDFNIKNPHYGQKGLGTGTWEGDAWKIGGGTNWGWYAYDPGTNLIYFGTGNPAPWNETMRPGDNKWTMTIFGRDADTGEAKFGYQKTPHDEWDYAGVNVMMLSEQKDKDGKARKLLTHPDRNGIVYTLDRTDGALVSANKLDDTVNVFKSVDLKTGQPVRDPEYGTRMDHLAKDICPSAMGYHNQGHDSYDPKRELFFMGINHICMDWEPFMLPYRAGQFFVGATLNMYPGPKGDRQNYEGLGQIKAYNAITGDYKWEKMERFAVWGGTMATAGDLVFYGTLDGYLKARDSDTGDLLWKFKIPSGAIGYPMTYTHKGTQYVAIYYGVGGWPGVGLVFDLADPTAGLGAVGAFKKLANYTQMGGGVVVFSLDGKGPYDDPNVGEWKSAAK
T1 sequence (P16028 26-300 partner): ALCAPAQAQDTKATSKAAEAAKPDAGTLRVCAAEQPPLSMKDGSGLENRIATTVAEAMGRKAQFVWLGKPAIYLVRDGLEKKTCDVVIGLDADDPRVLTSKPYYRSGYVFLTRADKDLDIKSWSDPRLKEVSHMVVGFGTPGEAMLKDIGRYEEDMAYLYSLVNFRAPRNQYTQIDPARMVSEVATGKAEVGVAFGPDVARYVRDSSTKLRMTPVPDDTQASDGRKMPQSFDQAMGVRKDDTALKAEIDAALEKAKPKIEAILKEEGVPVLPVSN

B1: MxaF, untagged, co-expressed with MxaJ-His6 for cryo-EM (enzyme, Methylobacterium extorquens AM1, UniProt P16027 28-626, looked up)
chain: T1 sequence (P16027 28-626)

Legend:
[1] = target: T1, MxaF/MxaJ complex; assay: isothermal titration calorimetry; assay type: binding
[2] = target: the molecule itself; assay: cryo-EM structure

Molecule	Kd [1]	stoichiometry N [2]
O=C(O)c1cc(C(=O)O)c2c(n1)C(=O)C(=O)c1cc(C(=O)O)[nH]c1-2 [PQQ]	~77 nM	
B1		2

— publication PMC12276312 (Nature Communications, 2025)
